Results: PubChem BioAssay AID687005 (Broad Institute, 2013)
Inconclusive results are not listed. Activity calls are given as the source filed them.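 The calls were made as follows: active = Compounds that reduce signal, with fitted half-maximal dose at or under twice the top valid tested dose; inconclusive = Poor fit, or flat curve losing 30 to 70% of signal; inactive = Potency past limit, flat within 30%, or opposite direction.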

Experiment: viability loss in HEK293T cells – cell-based, ATP luminescence, cherry-pick samples, cytotoxicity control, dose response (AID 687005)
Conditions: HEK293T viability, ATP luminescence (CellTiter-Glo), 48 h

For C[C@@H]1CN([C@@H](C)CO)C(=O)c2cc(-c3cncnc3)cnc2O[C@H]1CN(C)C(=O)Cc1ccccc1, the activity change, negative = cytotoxicity (at 26 µM (top of the series)) was -0.143% (inactive).

In the case of CCCNC(=O)Nc1ccc2c(c1)C(=O)N(C)C[C@@H](OC)[C@@H](C)CN(C(=O)CC)[C@H](C)CO2, the activity change, negative = cytotoxicity (at 26 µM (top of the series)) is reported as -2.92% (inactive).

For COc1cccc(S(=O)(=O)Nc2ccc3c(c2)OC[C@H](C)NC[C@@H](C)[C@H](OC)CN(C)C3=O)c1, the activity change, negative = cytotoxicity (at 26 µM (top of the series)) was -4.71% (inactive).

For COc1ccc(N2CCN(C(=O)CSc3ncnc4c3cnn4-c3ccc(OC)cc3)CC2)cc1, the activity change, negative = cytotoxicity (at 26 µM (top of the series)) was -4.11% (inactive).

In the case of CC(C)NC(=O)N[C@H]1CC[C@@H](CCNC(=O)C2CC2)O[C@@H]1CO, the activity change, negative = cytotoxicity (at 26 µM (top of the series)) is reported as -21.3% (inactive).

With CNC(=O)C[C@H]1CC[C@H]2[C@H](COc3ccc(NC(=O)Nc4ccccc4)cc3C(=O)N2C)O1 the activity change, negative = cytotoxicity (at 26 µM (top of the series)) was -20.5% (inactive).

In the case of CC(C)NC(=O)Nc1ccc2c(c1)C(=O)N([C@@H](C)CO)C[C@@H](C)[C@@H](CN(C)C(=O)NC(C)C)OCCCC[C@@H](C)O2, the activity change, negative = cytotoxicity (at 26 µM (top of the series)) is reported as 20.5% (inactive).

In the case of O=C(NC(=S)Nc1ccccc1N1CCOCC1)c1ccccc1F, the activity change, negative = cytotoxicity (at 26 µM (top of the series)) is reported as -0.484% (inactive).

For COc1ccc(C2CC(c3cccs3)=NN2C(=O)c2ccc(Br)o2)cc1 (stereo not drawn), the activity change, negative = cytotoxicity (at 26 µM (top of the series)) was 16.8% (inactive).

In the case of C[C@@H]1CN([C@H](C)CO)C(=O)c2cc(NS(=O)(=O)c3ccc(Cl)cc3)ccc2O[C@H]1CN(C)S(=O)(=O)c1ccc(F)cc1, the activity change, negative = cytotoxicity (at 26 µM (top of the series)) is reported as 38.8% (inactive).

For O=C1CCC(C(=O)Nc2ccc(Cl)cc2)N1 (stereo not drawn), the activity change, negative = cytotoxicity (at 26 µM (top of the series)) was 11% (inactive).

With C/C=C/c1ccc([C@H]2[C@@H](CO)N(C(=O)CC)[C@@H]2CNC(=O)C2CC2)cc1 the activity change, negative = cytotoxicity (at 23.5 µM (top of the series)) was 42.4% (inactive).

For Cc1ccccc1OCC(=O)NCc1ccccc1, the activity change, negative = cytotoxicity (at 26 µM (top of the series)) was 2.49% (inactive).

For C[C@H]1CN([C@@H](C)CO)C(=O)Cc2cc(NS(=O)(=O)c3ccc(F)cc3)ccc2O[C@@H]1CN(C)S(=O)(=O)c1ccc(F)cc1, the activity change, negative = cytotoxicity (at 26 µM (top of the series)) was -11.2% (inactive).

For CCC(C)c1ccc(NC(=S)N2CCN(c3ccccn3)CC2)cc1 (stereo not drawn), the activity change, negative = cytotoxicity (at 26 µM (top of the series)) was 13.7% (inactive).

In the case of O=C(NC(=S)Nc1ccccc1N1CCOCC1)c1ccc(Br)cc1, the activity change, negative = cytotoxicity (at 26 µM (top of the series)) is reported as -8.37% (inactive).

With Cc1cc(C(=O)Nc2cccc3c2O[C@H](CN(C)S(=O)(=O)c2ccccc2)[C@H](C)CN([C@H](C)CO)C3=O)n(C)n1 the activity change, negative = cytotoxicity (at 26 µM (top of the series)) was 16.8% (inactive).

For CO[C@H]1CN(C)C(=O)c2cc(NC(=O)c3ccccc3F)ccc2OC[C@H](C)N(CC2CCOCC2)C[C@H]1C, the activity change, negative = cytotoxicity (at 26 µM (top of the series)) was 57% (inactive).

In the case of Cc1ccc(OCCn2c(=S)[nH]c3ccccc32)c(C(C)C)c1, the activity change, negative = cytotoxicity (at 26 µM (top of the series)) is reported as -49.7% (inactive).

With C[C@H](CO)N1C[C@H](C)[C@H](CN(C)CC2CCCCC2)Oc2ccc(NC(=O)Nc3ccc4c(c3)OCO4)cc2C1=O the activity change, negative = cytotoxicity (at 23.5 µM (top of the series)) was -3.46% (inactive).

In the case of O=C(C[C@@H]1C=C[C@@H](NC(=O)Nc2cc(F)ccc2F)[C@H](CO)O1)NCCCN1CCOCC1, the activity change, negative = cytotoxicity (at 26 µM (top of the series)) is reported as 0.247% (inactive).

In the case of Cc1cccc(N2CCN(C(=O)C3CCC(=O)N3C(C)C)CC2C)c1 (stereo not drawn), the activity change, negative = cytotoxicity (at 35 µM (top of the series)) is reported as 21% (inactive).

For Cc1ccc(S(=O)(=O)Nc2ccc3c(c2)C(=O)N([C@@H](C)CO)C[C@H](C)[C@H](CN(C)C(=O)Nc2ccc(C(F)(F)F)cc2)O3)cc1, the activity change, negative = cytotoxicity (at 23.5 µM (top of the series)) was -1.43% (inactive).

In the case of Cc1noc(C)c1NC(=O)N(C)C[C@@H]1Oc2ccc(NC(=O)NC(C)C)cc2CC(=O)N([C@@H](C)CO)C[C@@H]1C, the activity change, negative = cytotoxicity (at 23.5 µM (top of the series)) is reported as -4.18% (inactive).

With COc1cccc(CNC(=O)COc2ccc(C(=O)c3ccccc3)cc2)c1 the activity change, negative = cytotoxicity (at 26 µM (top of the series)) was 10% (inactive).

For O=C(COC(=O)CCC1CCCC1)Nc1nc2c(F)c(F)c(F)cc2s1, the activity change, negative = cytotoxicity (at 26 µM (top of the series)) was -8.53% (inactive).

For CCC(=O)N(C)C[C@@H]1Oc2cc(C#CC(C)(C)O)ccc2S(=O)(=O)N([C@H](C)CO)C[C@H]1C, the activity change, negative = cytotoxicity (at 26 µM (top of the series)) was -15.7% (inactive).

With CC(C)NC(=O)N(C)C[C@@H]1OCCCC[C@@H](C)Oc2ccc(NC(=O)c3ccccc3)cc2C(=O)N([C@H](C)CO)C[C@@H]1C the activity change, negative = cytotoxicity (at 26 µM (top of the series)) was -7.94% (inactive).

In the case of CCCNC(=O)N1[C@@H](CO)[C@@H](c2ccc(-c3ccccc3)cc2)[C@@H]1CNC(C)=O, the activity change, negative = cytotoxicity (at 26 µM (top of the series)) is reported as -1.66% (inactive).

In the case of O=C(CSc1ncnc2c1cnn2-c1ccc(Cl)cc1)NCc1ccc2c(c1)OCO2, the activity change, negative = cytotoxicity (at 26 µM (top of the series)) is reported as -9.56% (inactive).

With Cc1noc(C)c1S(=O)(=O)N(C)C[C@@H]1Oc2c(NC(=O)c3cnccn3)cccc2C(=O)N([C@@H](C)CO)C[C@@H]1C the activity change, negative = cytotoxicity (at 26 µM (top of the series)) was 6.5% (inactive).

For COCC(=O)Nc1ccc2c(c1)C(=O)N(C)C[C@H](OC)[C@@H](C)CN(C(=O)c1ccccc1)[C@@H](C)CO2, the activity change, negative = cytotoxicity (at 26 µM (top of the series)) was 13.6% (inactive).

With O=C(C[C@H]1C=C[C@H](NC(=O)Nc2cc(F)ccc2F)[C@@H](CO)O1)NCCCN1CCOCC1 the activity change, negative = cytotoxicity (at 26 µM (top of the series)) was 27.4% (inactive).
